Counter-ions that a name gives are not always drawn.
Tested on: pre-diabetic and type 2 diabetes mellitus patients
Assay: Clinical trial: fasting plasma glucose (FPG)
Assay type: in vivo, human
Conditions: for Effect on fasting plasma glucose level (in words) / Post-treatment FPG - pre-treatment FPG, mean value: 16 weeks of treatment; for Effect on fasting plasma glucose level (in words): Kruskal-Wilcox test; for Post-treatment FPG - pre-treatment FPG, mean value / Post-treatment FPG, mean value / Pre-treatment FPG, mean value: FAS; for Post-treatment FPG, mean value: after 16 weeks of treatment; for Pre-treatment FPG, mean value: baseline before treatment
Method: From June 2015 to October 2018, a double-blind, randomized, and parallel-controlled trial, studying the effects of the combined use of Bifidobacterium and berberine on pre-diabetic and type 2 diabetes mellitus patients, was conducted in 10 research centers in Xi'an, Yan'an and Shangluo of Shaanxi province, etc., including the First Affiliated Hospital of the Fourth Military Medical University. 3) Diagnosed with impaired glucose tolerance or type 2 diabetes mellitus (5.6≤fasting plasma glucose (FPG)<8.0 mmol/L at V1 stage; 6.1≤fasting plasma glucose (FPG)<8.0<mmol/L or 7.8≤2-hour postprandial venous blood glucose (2 h-PPG)<17 mmol/L at V2 stage, please see V1 and V2 in Table 1 below); The trial included an enrollment stage of 2 weeks and a treatment stage of 16 weeks. After passing the first visit 1 (see V1 in Table 1), the subjects entered the enrollment stage, i.e., 2 weeks of lifestyle intervention, followed by a re-screening (see V2 in Table 1). The subjects were subjected to a 16-week course of treatment after passing the screening. See Table 1 for the detailed screening parameters. After the enrollment stage, the baseline data of the 300 successfully enrolled subjects were collected. Meanwhile, the subjects started to receive lifestyle guidance, and were randomly divided into four groups for 16 weeks of treatments. 1) Bifidobacterium group: the subjects were administered with Bifidobacterium capsules (Livzon Pharmaceutical Group Inc., batch no.: 20141013), 0.35 g/capsule, each capsule containing 50,000,000 viable bacteria (Bifidobacterium adolescentis DM8504), 2 capsules/time, 2 times/day, plus berberine placebo tablets (Northeast Pharma Group Shenyang First Pharma Co., Ltd., Lot no.: 20150101, containing 80.2% microcrystalline cellulose, 9.4% pregelatinized starch, 6.4% sodium carboxymethyl starch, 1% magnesium stearate, and 3% copovidone), 0.1 g/tablet, 5 tablets/time, 2 times/day. 2) Berberine group: the subjects were administered with berberine tablets (Northeast Pharma Group Shenyang First Pharma Co., Ltd., Lot no.: 130917, each tablet weighted 0.165 g and contained 0.1 g active berberine ingredient (berberine hydrochloride), with the same excipients as the placebo tablets), 5 tablets/time, 2 times/day, plus Bifidobacterium placebo capsules (Livzon Pharmaceutical Group Inc., Lot no.: 141001, specifically containing 0.348 g spray-dried lactose, and 0.002 g magnesium stearate), 0.35 g/capsule, 2 capsules/time, 2 times/day. 3) Combination Group: the subjects were administered with Bifidobacterium capsules, 0.35 g/capsule, each capsule containing 50,000,000 viable bacteria (B. adolescentis DM8504), 2 capsules/time, 2 times/day, plus berberine tablets, 0.1 g/tablet, each tablet containing 0.1 g active berberine ingredient (berberine hydrochloride), 5 tablets/time, 2 times/day. 4) Control group: the subjects were administered with Bifidobacteria placebo capsules, 0.35 g/capsule, 2 capsules/time, 2 times/day, plus berberine placebo tablets, 0.1 g/tablet, 5 tablets/time, 2 times/day. Bifidobacterium capsules were taken after meals and berberine tablets were taken before meals. After the sample testing was finished, 1) Chi-Squared test and t-test were used to evaluate the intergroup balance of the baseline data including the demographic characteristics and pre-treatment indicators, wherein the baseline data referred to those collected at the second visit, before the formal administration, the data collected at the first visit on the enrollment stage were used instead if the data at the second visit was lacking; 2) two-way disordered CM-CH11, Kruska-Wilcox test, etc. were used for analysis and intergroup comparison of pre- and post-treatment indicators such as fasting plasma glucose (FPG), HbA1c, plasma glucose at 2 hours post OGTT (2-h PPG), blood pressure, blood lipids, body weight and BMI; 3) adverse events and hypoglycemia events were described in terms of the type, frequency and relevance with the drugs, for safety evaluation. […]

Row | Compound | Effect on fasting plasma glucose level (in words) | Post-treatment FPG - pre-treatment FPG, mean value | Post-treatment FPG, mean value | Pre-treatment FPG, mean value
1 | Bifidobacterium | no evident effect | 0.0282 mmol/L | 6.4300 mmol/L | 6.4000 mmol/L
2 | COc1ccc2cc3[n+](cc2c1OC)CCc1cc2c(cc1-3)OCO2 [Berberine, berberine hydrochloride] | lowered the fasting plasma glucose level significantly | -0.2450 mmol/L | 6.1300 mmol/L | 6.4700 mmol/L

Source: patent publication US20220202882A1, “EFFECT OF COMBINATION OF BIFIDOBACTERIUM AND BERBERINE ON PRE-DIABETES AND TYPE 2 DIABETES” (The Fourth Military Medical University, priority 2018, published 2022)
